Literature values in patent publication US6676959B1, “Nicotine-containing pharmaceutical compositions giving a rapid transmucosal absorption” (priority 1998, dated 2004).

Conditions: after starting smoking

For `CN1CCCC1c1cccnc1` (stereo not shown) [nicotine], the “Time to peak blood levels of nicotine” value is listed as 5 to 10 min.
